Read-outs that look alike come from different tables or passages of the source. No end group written: not given here.
Key:
β-Klotho/FGFR complex = test: Elk1-luciferase reporter assay in HEK293T reporter cells transiently transfected with full-length WT β-Klotho; format: cell-based, human; details: 6 h treatment, mean ± SD of three independent experiments, read-out: EC50, stimulation of Elk1-luciferase reporter activity (KLB WT)
Description: (§1) To measure the signaling activity of β-Klotho mutants, ELK luciferase assay was performed in HEK293T cells that were stably transfected with reporter constructs containing 5 × UAS upstream of luciferase and Gal4 DNA-binding domain fused to ELK1. Briefly, HEK293T reporter cells were maintained in DMEM supplemented with 10% (v/v) FBS (Gibco) and 2 mM GlutaMax (Gibco) in a 37 °C incubator with 5% CO2. Cells were plated on 96-well plates in growth medium and incubated overnight. The next day, cells were transfected with expression vectors encoding full-length β-Klotho WT or mutants using the Lipofectamine 2000 transfection reagent (Invitrogen) according to the manufacturer’s protocol. Cells were serum-starved in DMEM supplemented with 5% (v/v) FBS (Gibco) and 2 mM GlutaMax (Gibco) overnight the day after transfection and treated with FGF21 for 6 hours at 37 °C with 5% CO2, after which the cells were lysed in Bright-Glo luciferase reagent (Promega). Luciferase activity was measured in relative luminescence units on the EnVision Multilabel Plate Reader (PerkinElmer) according to the manufacturer’s instructions. All assays were performed in duplicates. EC50 values were determined from a three-parameter logistic regression model with the least squares fit using GraphPad Prism version 7.

[1] = system: FGFR (expressed endogenously in HEK293T reporter cells); test: Elk1-luciferase reporter assay in HEK293T reporter cells without β-Klotho (no KLB); format: cell-based, human; details: d.n.c = did not converge
Description: as §1, with “The next day, cells were transfected with expression vectors encoding full-length β-Klotho WT or mutants using the Lipofectamine 2000 transfection reagent (Invitrogen) according to the manufacturer’s protocol.” left out

β-Klotho = biological target: T1, β-Klotho (Homo sapiens, UniProt Q86Z14); test: AlphaScreen competition binding assay (inhibition of β-Klotho binding to biotinylated FGF19 or FGF21); details: Suppl Fig S6A, 20 nM β-Klotho ECD 6×His, 40 nM biotinylated human FGF21, d.n.c. = did not converge
T1 construct: the ECD of human β-Klotho (aa1–992) fused with a 6 × His tag at the C-terminus; made in house
T1 sequence (Q86Z14 1-992): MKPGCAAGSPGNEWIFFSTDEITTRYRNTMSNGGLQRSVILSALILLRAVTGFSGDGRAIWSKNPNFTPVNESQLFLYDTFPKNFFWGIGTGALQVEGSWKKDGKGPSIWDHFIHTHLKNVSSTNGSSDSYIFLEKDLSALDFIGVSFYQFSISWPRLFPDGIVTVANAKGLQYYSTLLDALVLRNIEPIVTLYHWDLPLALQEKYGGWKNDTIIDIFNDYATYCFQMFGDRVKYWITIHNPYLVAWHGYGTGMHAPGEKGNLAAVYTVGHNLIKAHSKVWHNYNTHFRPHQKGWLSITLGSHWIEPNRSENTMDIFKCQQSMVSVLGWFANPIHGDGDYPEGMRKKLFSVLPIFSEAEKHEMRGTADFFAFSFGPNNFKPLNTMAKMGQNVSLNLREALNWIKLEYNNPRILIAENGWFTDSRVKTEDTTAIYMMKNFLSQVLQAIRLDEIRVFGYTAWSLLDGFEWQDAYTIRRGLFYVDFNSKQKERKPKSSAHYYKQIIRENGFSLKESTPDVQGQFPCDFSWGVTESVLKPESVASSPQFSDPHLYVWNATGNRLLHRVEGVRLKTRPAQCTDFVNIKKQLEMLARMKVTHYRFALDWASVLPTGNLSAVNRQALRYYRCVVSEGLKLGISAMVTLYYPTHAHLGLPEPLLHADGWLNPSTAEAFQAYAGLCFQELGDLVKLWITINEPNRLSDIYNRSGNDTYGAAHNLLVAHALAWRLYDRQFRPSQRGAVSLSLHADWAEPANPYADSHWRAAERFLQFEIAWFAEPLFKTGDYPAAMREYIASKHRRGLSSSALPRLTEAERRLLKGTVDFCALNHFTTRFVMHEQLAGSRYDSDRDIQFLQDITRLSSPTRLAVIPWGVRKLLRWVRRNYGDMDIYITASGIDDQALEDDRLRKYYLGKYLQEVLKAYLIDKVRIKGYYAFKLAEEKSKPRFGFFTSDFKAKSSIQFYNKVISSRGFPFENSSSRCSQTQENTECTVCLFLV
Description: FGF19 and FGF21 C-terminal WT and mutant peptides were custom synthesized and purified (>95% purity) (LifeTein LLC, South Plainfield, NJ). Binding of FGF19 and FGF21 peptides to β-Klotho was assessed using an AlphaScreen® assay. Briefly, 20 nM of β-Klotho ECD 6 × His, varying amounts of FGF19 and 21 peptides, and 40 nM of biotinylated human FGF19 or FGF21 protein were prepared in AlphaLISA universal buffer (PerkinElmer) and added to individual wells in 384-well white opaque plates (Greiner Bio-One). Subsequently, streptavidin donor beads and nickel chelate (Ni-NTA) acceptor beads (AlphaScreen Histidine detection kit; PerkinElmer) were diluted to 40 µg/mL and added to the plates. Total reaction volume was 8 µL. Plates were incubated for 3 hours at room temperature protected from light and read on the EnVision Multilabel Plate Reader (PerkinElmer) according to the manufacturer’s instructions. Assays were performed in triplicate. IC50 values were determined from a three-parameter logistic regression model with the least squares fit using GraphPad Prism version 7.

For “FGF1: a prototypical paracrine FGF [reference compound]”, the EC50 (β-Klotho/FGFR complex; Fig 3A) was 0.038 ± 0.024 nM and the EC50 ([1]; Fig 3A, mean ± SD of three independent experiments, read-out: EC50, stimulation of Elk1-luciferase reporter activity (no KLB)) was 0.049 ± 0.037 nM.

For “FGF19: mature human FGF19 protein, endocrine fibroblast growth factor”, the EC50 (β-Klotho/FGFR complex; Fig 3D) was 2.88 ± 1.43 nM and the “EC50, stimulation of Elk1-luciferase reporter activity (no KLB)” value ([1]; Fig 3D) was “d.n.c”.

For PQPPDAGSSDPLSMVGPSQGRSPSYAS [188V-A], the “IC50, competition with FGF21 (FGF21 C-terminal peptides)” value (β-Klotho) was “d.n.c”.

In the case of PQPPDVGSSDALSMVGPSQGRSPSYAS [193P-A], the “IC50, competition with FGF21 (FGF21 C-terminal peptides)” value (β-Klotho) is reported as “d.n.c”.

With PQPPDVGSSDPLSMVGPSQGASPSYAS [203R-A] the IC50 (β-Klotho; read-out: IC50, competition with FGF21 (FGF21 C-terminal peptides)) was 7.3 nM.

Source: publication PMC6056499, “A systematic dissection of sequence elements determining β-Klotho and FGF interaction and signaling” (Scientific Reports, 2018)
